Laboratory results from ChEMBL document CHEMBL1201862, “PubChem BioAssay data set” (2004).
Blank lines part the entries; values can stand above or below the compound they belong to. Active and inactive are the calls of the source.

Tests used:
[1] = target: Lysine-specific demethylase 4A (Homo sapiens, UniProt O75164); assay: JMJD2A histone demethylase inhibitors, dose response, selectivity assay for GASC-1 inhibitor project, biochemical, DELFIA europium, cherry-picked samples (AID 488840)
[2] = target: T1, Alkaline phosphatase, tissue-nonspecific isozyme (Homo sapiens, UniProt P05186); assay: TNAP enzyme inhibition by screening hits, dose response, selectivity assay for mouse IAP inhibitor project, biochemical, human TNAP, uHTS hits (AID 488906); assay type: functional
T1 sequence (P05186 whole entry): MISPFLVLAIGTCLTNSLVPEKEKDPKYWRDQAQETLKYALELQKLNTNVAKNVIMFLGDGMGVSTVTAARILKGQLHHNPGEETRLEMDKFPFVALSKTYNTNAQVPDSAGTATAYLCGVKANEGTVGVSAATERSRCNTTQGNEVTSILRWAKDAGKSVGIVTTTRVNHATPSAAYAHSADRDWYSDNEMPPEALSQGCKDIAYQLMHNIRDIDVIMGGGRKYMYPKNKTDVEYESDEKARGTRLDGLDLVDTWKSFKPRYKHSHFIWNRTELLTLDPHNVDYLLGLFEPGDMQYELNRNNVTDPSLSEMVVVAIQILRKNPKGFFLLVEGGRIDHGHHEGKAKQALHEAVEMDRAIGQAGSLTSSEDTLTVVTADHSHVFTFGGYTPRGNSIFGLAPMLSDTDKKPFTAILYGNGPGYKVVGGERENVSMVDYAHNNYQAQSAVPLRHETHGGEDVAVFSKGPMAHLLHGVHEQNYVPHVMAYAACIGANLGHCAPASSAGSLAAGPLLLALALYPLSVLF

[3] = target: T2, Intestinal-type alkaline phosphatase (Mus musculus, UniProt P24822); assay: PubChem AID 488785; assay type: functional
[4] = target: T3, Intestinal-type alkaline phosphatase (Homo sapiens, UniProt P09923); assay: inhibition of human intestinal alkaline phosphatase – biochemical, dose response (AID 488876); assay type: functional
[5] = target: T3, Intestinal-type alkaline phosphatase; assay: human IAP inhibitors, dose response, biochemical, luminescent, uHTS hits, set 2 (AID 488793); assay type: functional
[6] = human group III sPLA2 inhibitors, dose response, biochemical, QFRET, IC50 (AID 743457);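 also: green fluorescence rise as the enzyme cleaves BODIPY PC-A2 in liposomes; potency for inhibition of the enzyme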
[7] = target: T1, Alkaline phosphatase, tissue-nonspecific isozyme; assay: inhibition of tissue-nonspecific alkaline phosphatase – biochemical, dose response (AID 488882); assay type: functional
[8] = target: T3, Intestinal-type alkaline phosphatase; assay: Dose Response confirmation of uHTS hits from a small molecule inhibitors of human intestinal alkaline phosphatase via a luminescent assay. [Related pubchem assays (depositor defined):AID2544, AID2574]; assay type: functional
[9] = target: T2, Intestinal-type alkaline phosphatase; assay: PubChem AID 488874; assay type: functional
[10] = test system: H9c2; assay: cells; assay type: functional, cell-based; settings: Rattus norvegicus, H9c2, Myocardium;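 also: confirmatory concentration-response retest of ultra-high-throughput screening hits for modulation of myocardial damage; cell death induced by hydrogen peroxide oxidative stress; compound pretreatment for 60 min then peroxide exposure for 2 h; potency is for protecting the cells against peroxide damage rather than for killing them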
[11] = target: Peroxisome proliferator-activated receptor gamma/Nuclear receptor coactivator 2 (Homo sapiens, UniProt P37231); assay: (§1) TR-FRET dose response biochemical High Throughput Screening assay for agonists of the steroid receptor coactivator 2 (SRC-2) recruitment by the peroxisome proliferator-activated receptor gamma (PPAR gamma): non-selective agonists. [Related pubchem assays: 1297, 1032 ]; assay type: functional
[12] = target: Peroxisome proliferator-activated receptor gamma/Nuclear receptor coactivator 1 (Homo sapiens, UniProt P37231); assay: as §1, with “1 (SRC-1)” for “2 (SRC-2)”, “assays (depositor defined):AID1300, AID1808, AID504735, AID631]” for “assays: 1297, 1032 ]”; assay type: protein assay
[13] = target: Peroxisome proliferator-activated receptor gamma/Nuclear receptor coactivator 3 (Homo sapiens, UniProt P37231); assay: as §1, with “3 (SRC-3)” for “2 (SRC-2)”, “1301 (Confirmation screen.), 1048 (Primary screen.)]” for “1297, 1032 ]”; assay type: functional
[14] = target: T1, Alkaline phosphatase, tissue-nonspecific isozyme; assay: human TNAP enzyme inhibitors, SAR follow-up, biochemical, luminescent, dose response (AID 1056)
[15] = target: T2, Intestinal-type alkaline phosphatase; assay: mouse intestinal alkaline phosphatase activators, dose response, biochemical, luminescence, uHTS hits (AID 488783); assay type: functional
[16] = target: T1, Alkaline phosphatase, tissue-nonspecific isozyme; assay: TNAP enzyme activators, dose response, selectivity assay for mouse IAP activator project, biochemical, TNAP isozyme, mouse IAP uHTS hits (AID 488880); assay type: functional
[17] = target: T3, Intestinal-type alkaline phosphatase; assay: activation of human intestinal alkaline phosphatase – biochemical, dose response (AID 488873); assay type: functional
[18] = target: T4, RNA-binding protein pos-1 (Caenorhabditis elegans, UniProt G5EF15); assay: inhibitors of POS-1/mex-3 RNA binding, dose response, biochemical, fluorescence polarization (AID 1964);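 also: purified POS-1 fused to maltose binding protein made in E. coli; potency of compounds blocking POS-1 binding to fluorescent RNA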
T4 sequence (G5EF15 whole entry): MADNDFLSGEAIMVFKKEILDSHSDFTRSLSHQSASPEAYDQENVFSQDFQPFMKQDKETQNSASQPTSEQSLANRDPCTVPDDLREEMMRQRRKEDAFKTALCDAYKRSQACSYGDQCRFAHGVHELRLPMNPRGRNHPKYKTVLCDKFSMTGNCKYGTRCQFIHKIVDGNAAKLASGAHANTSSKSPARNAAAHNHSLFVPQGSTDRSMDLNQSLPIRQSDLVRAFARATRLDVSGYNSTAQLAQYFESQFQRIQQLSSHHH

[19] = target: T5, Zinc finger protein mex-5 (Caenorhabditis elegans, UniProt Q9XUB2); assay: MEX-5/TCR-2 RNA interaction inhibitors, dose response, biochemical, C. elegans, fluorescence polarization (AID 1960)
T5 sequence (Q9XUB2 whole entry): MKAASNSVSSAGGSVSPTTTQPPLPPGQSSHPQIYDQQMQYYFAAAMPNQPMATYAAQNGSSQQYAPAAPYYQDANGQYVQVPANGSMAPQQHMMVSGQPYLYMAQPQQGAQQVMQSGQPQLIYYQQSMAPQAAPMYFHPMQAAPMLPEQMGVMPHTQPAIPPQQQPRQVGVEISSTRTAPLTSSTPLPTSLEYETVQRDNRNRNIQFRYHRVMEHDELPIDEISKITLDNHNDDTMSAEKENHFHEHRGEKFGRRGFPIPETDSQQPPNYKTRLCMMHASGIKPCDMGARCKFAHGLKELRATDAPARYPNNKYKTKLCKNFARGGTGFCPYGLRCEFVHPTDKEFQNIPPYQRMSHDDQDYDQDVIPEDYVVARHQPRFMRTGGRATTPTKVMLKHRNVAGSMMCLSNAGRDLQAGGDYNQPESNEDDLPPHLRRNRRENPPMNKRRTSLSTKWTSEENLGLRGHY

[20] = target: Voltage-dependent T-type calcium channel subunit alpha-1H (Homo sapiens, UniProt O95180); assay: Cav3.2 T-type channel blockers, cell-based, SynthLib3 library, HEK293 Cav3.2, fluorescence (AID 493041); assay type: functional
[21] = target: Tumor necrosis factor (Homo sapiens, UniProt P01375); assay: TNFa-triggered NF-kB activation inhibitors, SAR follow-up, cell-based, set 3 (AID 2801); assay type: functional
[22] = target: T6, Nucleotide-binding oligomerization domain-containing protein 1 (Homo sapiens, UniProt Q9Y239); assay: SAR analysis of compounds that inhibit NOD1 - Set 3. [Related pubchem assays (depositor defined):AID1566, AID1575, AID1578, AID1849, AID1852, AID2333, AID2335, AID2466]; assay type: functional
T6 sequence (Q9Y239 whole entry): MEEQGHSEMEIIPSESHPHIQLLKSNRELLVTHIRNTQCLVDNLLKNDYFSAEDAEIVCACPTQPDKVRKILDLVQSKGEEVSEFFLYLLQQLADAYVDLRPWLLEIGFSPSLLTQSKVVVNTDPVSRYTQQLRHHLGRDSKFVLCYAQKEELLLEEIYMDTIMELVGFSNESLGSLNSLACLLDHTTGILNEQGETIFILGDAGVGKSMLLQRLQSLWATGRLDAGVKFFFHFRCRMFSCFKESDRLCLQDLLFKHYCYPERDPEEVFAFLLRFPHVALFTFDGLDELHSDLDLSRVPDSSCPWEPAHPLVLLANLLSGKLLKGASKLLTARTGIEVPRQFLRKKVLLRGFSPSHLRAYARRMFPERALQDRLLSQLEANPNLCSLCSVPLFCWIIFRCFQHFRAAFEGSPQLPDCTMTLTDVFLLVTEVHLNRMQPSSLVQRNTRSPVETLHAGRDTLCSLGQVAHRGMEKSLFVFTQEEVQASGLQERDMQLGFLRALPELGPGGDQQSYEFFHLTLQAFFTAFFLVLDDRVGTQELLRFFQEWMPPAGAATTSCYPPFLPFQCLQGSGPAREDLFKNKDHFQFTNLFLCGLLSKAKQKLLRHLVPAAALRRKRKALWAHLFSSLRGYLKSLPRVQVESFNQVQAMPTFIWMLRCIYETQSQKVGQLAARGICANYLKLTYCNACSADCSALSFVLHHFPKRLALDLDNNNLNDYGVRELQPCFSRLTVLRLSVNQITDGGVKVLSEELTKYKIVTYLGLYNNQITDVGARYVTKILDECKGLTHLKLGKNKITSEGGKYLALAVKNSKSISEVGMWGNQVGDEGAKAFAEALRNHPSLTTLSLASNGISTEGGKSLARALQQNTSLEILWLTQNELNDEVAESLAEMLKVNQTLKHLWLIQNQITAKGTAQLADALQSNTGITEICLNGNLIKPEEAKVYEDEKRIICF

[23] = test system: HEK293; assay: SAR analysis of compounds that are cytotoxic to HEK293 - Set 3. [Related pubchem assays (depositor defined):AID1575, AID1578, AID1848, AID1849, AID2001, AID2333, AID2334, AID2335, AID2337, AID2469]; assay type: functional, cell-based; settings: Homo sapiens
[24] = target: Nucleotide-binding oligomerization domain-containing protein 2 (Homo sapiens, UniProt Q9HC29); assay: NOD2 signaling inhibitors, analog potency, SAR follow-up, cell-based, set 3 (AID 2799); assay type: functional
[25] = cells; assay type: functional, cell-based
[26] = target: T2, Intestinal-type alkaline phosphatase; assay: PubChem AID 488875; assay type: functional
[27] = target: T1, Alkaline phosphatase, tissue-nonspecific isozyme; assay: TNAP enzyme activators, dose response, selectivity assay for human IAP activator project, biochemical, TNAP isozyme, human IAP uHTS hits (AID 488886); assay type: functional;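 also: potency of compounds raising TNAP activity as a selectivity check on IAP activators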
[28] = target: T3, Intestinal-type alkaline phosphatase; assay: human IAP activators, dose response, biochemical, luminescent, uHTS hits, set 2 (AID 488817); assay type: functional;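 also: potency of activators that raise enzyme activity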
[29] = target: T7, Nuclear receptor subfamily 0 group B member 1 (Homo sapiens, UniProt P51843); assay type: functional, cell-based;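 also: HEK293T cells transfected with SF-1 and DAX-1 plus StAR promoter luciferase reporter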
T7 sequence (P51843 whole entry): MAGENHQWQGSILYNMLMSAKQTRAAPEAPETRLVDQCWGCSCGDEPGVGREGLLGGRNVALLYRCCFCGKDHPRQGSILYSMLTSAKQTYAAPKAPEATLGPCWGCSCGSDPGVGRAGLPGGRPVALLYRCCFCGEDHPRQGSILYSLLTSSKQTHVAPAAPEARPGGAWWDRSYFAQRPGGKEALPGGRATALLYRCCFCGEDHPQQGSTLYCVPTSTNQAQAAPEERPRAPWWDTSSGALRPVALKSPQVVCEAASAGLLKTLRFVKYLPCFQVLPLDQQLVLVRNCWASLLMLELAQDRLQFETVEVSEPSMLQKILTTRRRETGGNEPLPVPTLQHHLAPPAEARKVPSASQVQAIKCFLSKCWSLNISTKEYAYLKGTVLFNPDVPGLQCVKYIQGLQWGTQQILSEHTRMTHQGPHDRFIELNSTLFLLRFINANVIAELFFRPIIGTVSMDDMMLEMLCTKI

[30] = target: T3, Intestinal-type alkaline phosphatase; assay: human intestinal alkaline phosphatase activators, dose response, biochemical, luminescence, uHTS hits (AID 463120); assay type: functional

T3 sequence (P09923 whole entry): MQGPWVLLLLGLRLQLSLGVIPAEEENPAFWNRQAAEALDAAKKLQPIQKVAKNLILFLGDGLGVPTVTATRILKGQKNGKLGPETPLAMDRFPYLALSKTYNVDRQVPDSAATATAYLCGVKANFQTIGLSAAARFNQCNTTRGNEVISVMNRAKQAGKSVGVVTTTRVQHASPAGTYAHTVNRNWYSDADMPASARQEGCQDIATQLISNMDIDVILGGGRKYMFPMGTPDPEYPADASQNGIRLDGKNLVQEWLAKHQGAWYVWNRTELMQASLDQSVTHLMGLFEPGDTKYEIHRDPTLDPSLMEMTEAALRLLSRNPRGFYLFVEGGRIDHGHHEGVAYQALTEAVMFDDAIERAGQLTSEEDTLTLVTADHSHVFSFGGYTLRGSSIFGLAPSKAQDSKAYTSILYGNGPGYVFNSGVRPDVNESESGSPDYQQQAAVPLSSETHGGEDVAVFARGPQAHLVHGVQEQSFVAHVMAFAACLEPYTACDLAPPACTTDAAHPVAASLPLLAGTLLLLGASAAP
T2 sequence (P24822 whole entry): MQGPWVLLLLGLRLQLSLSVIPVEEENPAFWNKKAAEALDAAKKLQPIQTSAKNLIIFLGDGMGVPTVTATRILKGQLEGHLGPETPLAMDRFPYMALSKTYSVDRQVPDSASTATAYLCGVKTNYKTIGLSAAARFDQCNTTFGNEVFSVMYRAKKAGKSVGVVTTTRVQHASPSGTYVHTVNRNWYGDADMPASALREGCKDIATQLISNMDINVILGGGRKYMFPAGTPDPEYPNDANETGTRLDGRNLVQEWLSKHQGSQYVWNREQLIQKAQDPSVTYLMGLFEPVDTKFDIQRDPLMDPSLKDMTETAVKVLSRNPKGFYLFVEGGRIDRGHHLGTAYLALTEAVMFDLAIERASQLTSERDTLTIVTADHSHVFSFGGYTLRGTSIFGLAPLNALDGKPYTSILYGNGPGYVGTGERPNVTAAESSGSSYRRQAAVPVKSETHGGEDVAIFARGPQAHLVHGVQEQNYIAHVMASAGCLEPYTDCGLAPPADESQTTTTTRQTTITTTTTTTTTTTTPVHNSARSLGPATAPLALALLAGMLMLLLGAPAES
Sequence of Peroxisome proliferator-activated receptor gamma/Nuclear receptor coactivator 2 (P37231 whole entry): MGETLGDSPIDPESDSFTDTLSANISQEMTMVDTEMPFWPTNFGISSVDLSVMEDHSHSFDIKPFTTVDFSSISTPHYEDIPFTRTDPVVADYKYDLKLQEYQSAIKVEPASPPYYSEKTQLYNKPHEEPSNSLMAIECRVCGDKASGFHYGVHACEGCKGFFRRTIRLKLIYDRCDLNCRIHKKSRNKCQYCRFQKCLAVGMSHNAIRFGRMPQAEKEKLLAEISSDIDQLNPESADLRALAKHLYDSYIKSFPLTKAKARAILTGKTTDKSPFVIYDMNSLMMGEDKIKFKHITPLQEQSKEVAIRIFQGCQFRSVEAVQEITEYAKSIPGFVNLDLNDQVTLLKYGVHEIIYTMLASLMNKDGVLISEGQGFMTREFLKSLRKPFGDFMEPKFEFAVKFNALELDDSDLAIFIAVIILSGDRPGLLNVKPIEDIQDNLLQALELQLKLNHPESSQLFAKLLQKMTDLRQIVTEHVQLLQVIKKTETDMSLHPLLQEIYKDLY
Sequence of Peroxisome proliferator-activated receptor gamma/Nuclear receptor coactivator 2 (Q15596 whole entry, further chain): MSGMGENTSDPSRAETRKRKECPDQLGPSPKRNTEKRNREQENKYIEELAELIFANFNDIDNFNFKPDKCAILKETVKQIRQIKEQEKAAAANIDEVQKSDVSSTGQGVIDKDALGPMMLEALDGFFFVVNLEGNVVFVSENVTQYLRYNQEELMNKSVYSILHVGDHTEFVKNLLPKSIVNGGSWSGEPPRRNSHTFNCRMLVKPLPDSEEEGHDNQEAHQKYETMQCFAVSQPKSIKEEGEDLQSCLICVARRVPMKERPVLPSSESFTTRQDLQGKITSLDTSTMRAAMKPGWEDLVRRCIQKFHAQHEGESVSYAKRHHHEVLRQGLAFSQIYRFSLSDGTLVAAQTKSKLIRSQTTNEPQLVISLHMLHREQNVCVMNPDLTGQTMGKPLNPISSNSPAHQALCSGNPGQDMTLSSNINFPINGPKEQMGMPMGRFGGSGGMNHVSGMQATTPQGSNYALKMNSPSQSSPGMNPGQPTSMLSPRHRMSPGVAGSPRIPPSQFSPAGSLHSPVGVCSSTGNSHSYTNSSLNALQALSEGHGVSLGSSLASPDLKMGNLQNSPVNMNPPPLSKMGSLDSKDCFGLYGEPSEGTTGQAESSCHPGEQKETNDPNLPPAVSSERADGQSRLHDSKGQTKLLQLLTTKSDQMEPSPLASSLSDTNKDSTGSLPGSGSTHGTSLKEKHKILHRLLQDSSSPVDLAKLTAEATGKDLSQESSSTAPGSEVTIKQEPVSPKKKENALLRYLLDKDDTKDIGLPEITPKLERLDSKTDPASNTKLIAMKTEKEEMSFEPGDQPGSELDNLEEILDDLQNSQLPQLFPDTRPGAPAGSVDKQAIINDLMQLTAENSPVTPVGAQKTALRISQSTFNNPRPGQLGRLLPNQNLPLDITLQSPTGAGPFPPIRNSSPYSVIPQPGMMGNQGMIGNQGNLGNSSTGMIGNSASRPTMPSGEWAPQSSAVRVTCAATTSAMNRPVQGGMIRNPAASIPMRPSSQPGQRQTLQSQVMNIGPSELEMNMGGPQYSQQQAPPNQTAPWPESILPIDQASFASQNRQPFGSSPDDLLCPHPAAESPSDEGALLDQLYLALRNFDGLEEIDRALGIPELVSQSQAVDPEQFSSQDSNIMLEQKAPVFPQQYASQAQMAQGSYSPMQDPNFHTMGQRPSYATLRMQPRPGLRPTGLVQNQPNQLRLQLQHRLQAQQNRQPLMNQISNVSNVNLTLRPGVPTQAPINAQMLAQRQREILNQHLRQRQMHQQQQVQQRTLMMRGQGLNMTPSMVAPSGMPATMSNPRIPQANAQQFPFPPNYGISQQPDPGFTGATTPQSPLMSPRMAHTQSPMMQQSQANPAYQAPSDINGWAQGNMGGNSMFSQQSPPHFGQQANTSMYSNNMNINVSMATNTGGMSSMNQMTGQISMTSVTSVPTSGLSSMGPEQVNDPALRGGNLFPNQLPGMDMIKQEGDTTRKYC
Sequence of Peroxisome proliferator-activated receptor gamma/Nuclear receptor coactivator 3 (P37231 whole entry): as the sequence (P37231 whole entry) above
Sequence of Peroxisome proliferator-activated receptor gamma/Nuclear receptor coactivator 3 (Q9Y6Q9 whole entry, further chain): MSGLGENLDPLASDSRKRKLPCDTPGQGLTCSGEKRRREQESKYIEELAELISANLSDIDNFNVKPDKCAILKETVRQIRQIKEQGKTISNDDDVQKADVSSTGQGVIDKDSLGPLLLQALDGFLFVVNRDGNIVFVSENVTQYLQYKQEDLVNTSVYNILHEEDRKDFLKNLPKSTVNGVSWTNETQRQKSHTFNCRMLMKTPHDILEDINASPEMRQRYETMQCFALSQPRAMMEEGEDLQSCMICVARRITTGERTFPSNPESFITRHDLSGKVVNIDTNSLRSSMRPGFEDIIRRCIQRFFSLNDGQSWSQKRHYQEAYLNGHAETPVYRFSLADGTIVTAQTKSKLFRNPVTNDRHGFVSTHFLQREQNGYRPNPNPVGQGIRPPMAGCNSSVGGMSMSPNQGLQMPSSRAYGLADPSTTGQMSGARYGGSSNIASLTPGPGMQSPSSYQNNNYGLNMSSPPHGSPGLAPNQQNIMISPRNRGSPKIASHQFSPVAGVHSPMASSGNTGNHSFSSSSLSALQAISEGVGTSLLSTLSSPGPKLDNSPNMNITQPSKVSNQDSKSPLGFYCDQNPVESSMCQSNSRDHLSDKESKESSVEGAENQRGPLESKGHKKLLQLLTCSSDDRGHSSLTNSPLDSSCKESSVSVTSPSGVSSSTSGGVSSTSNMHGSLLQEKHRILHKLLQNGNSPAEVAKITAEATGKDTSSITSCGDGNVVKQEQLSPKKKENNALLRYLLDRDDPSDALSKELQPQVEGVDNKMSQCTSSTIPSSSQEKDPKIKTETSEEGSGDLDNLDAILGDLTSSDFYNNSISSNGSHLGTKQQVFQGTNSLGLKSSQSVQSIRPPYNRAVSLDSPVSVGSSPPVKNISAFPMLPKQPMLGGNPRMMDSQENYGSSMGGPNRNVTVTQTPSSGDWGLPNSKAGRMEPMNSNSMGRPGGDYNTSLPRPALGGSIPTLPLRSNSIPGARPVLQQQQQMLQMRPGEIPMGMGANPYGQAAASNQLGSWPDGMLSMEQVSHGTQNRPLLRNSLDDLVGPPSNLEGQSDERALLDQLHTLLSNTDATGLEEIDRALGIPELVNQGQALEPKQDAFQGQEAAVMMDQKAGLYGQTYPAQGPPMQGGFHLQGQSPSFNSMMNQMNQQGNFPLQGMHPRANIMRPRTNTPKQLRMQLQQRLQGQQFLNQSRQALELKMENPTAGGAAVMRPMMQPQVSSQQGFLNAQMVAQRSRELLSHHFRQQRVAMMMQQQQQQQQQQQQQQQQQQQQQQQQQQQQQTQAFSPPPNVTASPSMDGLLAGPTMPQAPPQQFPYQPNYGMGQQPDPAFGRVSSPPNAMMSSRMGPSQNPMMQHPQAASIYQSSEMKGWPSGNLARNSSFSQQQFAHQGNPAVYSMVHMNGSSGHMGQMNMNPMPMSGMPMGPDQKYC

AC50 [1]: > 60 µM (inactive)
Structure (SMILES): Cc1cc(C(=O)Nc2sc3c(c2C#N)CCC(C)C3)no1 (stereo not given)

IC50 [5]: 52.5 µM (active)
IC50 [6]: > 122 µM (inactive)
IC50 [7]: 47.1 µM (active)
IC50 [8]: 13 µM (inactive)
IC50 [9]: 35.3 µM (active)
Structure (SMILES): CCN(CC)c1ccc(N=Nc2nn(C)c(C)c2[N+](=O)[O-])cc1

IC50 [14]: 13.1 µM (active)
EC50 [15]: 66.9 µM (active)
EC50 [16]: 62.1 µM (active)
EC50 [17]: 74.7 µM (active)
EC50 [18]: 11.5 µM (active)
EC50 [19]: 17.7 µM (inconclusive)
Structure (SMILES): COc1ccc(OC)c(S(=O)(=O)Nc2ccc(O)c(Sc3nc[nH]n3)c2)c1

EC50 [20]: 9.4 µM (active)
Structure (SMILES): CCC(C)CN1CC2CCC(NC(=O)c3cc(Cl)cc(Cl)c3)C2C1 (stereo not given)

Continued, compound first:

Structure (SMILES): COc1ccc(CN2C3CCCC2CC(NC(=O)Nc2cccc(C)c2)C3)cc1 (stereo not given)
IC50 [2]: 32.2 µM (active)
IC50 [3]: 11 µM (active)
IC50 [4]: 22.7 µM (active)

Structure (SMILES): O=C(Nc1cccnc1)c1sc(Nc2ccccc2)nc1-c1ccccc1
IC50 [10]: > 79 µM (inactive)
EC50 [11]: 3.26 µM (active)
EC50 [12]: 2.72 µM (active)
EC50 [13]: 40 µM (not active)

Structure (SMILES): Nc1nc2ccccc2n1S(=O)(=O)c1ccc(OC(F)(F)F)cc1
IC50 [21]: > 20 µM (inactive)
IC50 [22]: 8.94 µM (active)
IC50 [23]: > 20 µM (inactive)
IC50 [24]: > 20 µM (inactive)

Structure (SMILES): CCc1ccc(/C=N/Nc2[nH]cnc3ncnc2-3)cc1
IC50 [25]: > 67.5 µM (inactive)
EC50 [26]: > 100 µM (inactive)
EC50 [27]: 17.7 µM (active)
EC50 [28]: 12.5 µM (active)
IC50 [29]: 2.09 µM (active)
EC50 [30]: 6.62 µM (active)
